For the assay, the target named is T1, binding of the mutant β-III-spectrin L253P ABD to F-actin (Homo sapiens, UniProt O15020, L253P).
T1 construct: the β-III-spectrin (human) ABD residues 1 to 284; expressed in transfected cells; host or cells: HEK293-6E (pTT5 vector, transient transfection)
As to the kind of experiment: Primary live-cell FRET assay (GFP-ABD-L253P + Lifeact-mCherry) in HEK293-6E cells. It counts as cell-based. As to conditions: for Shift of FRET: 10 μM; for Effect of Hit compound on primary FRET: LOPAC Hits (10 μM screen, 4SD threshold, 120 min) and dose response. The method, then: To develop a biosensor that monitors the binding of mutant L253P β-III-spectrin to actin filaments in live cells, a FRET approach was tested. A FRET donor construct consisting of green fluorescent protein fused to the N terminus of the mutant ABD (GFP-ABD-L253P) was coexpressed in HEK293-EBNA1-6E (HEK293-6E) cells with a FRET acceptor construct consisting of the actin-binding peptide, Lifeact, fused to the N terminus of red fluorescent protein, mCherry (Lifeact-mCherry). Lifeact is a 17 amino acid peptide derived from the yeast actin-binding protein, ABP140 ([15]). […] The cryo-EM structures of ABD L253P and Lifeact on actin indicate that the binding sites overlap on actin units. With ABD L253P and Lifeact bound on neighboring actin units, we predicted an average distance of ∼80 Å between GFP and mCherry (Fig. 1). With a known Förster distance R0 of 52.4 Å ([17]), this corresponds to FRET value of 0.07, a sufficient signal for a biosensor platform. To design a system most compatible for large production and eventual screening of 50,000+ compound libraries, we used HEK293-6E cells, a suspension cell line that yields greater levels (>threefold) of recombinant protein expression ([18], [19]).
With a constant amount of GFP-ABD-L253P expressed, increased Lifeact-mCherry expression increases FRET with an exponential plateau to 0.12 (Fig. 2A). To measure the nonspecific component of our FRET readout, we concurrently tested expression of mCherry in place of Lifeact-mCherry. For comparison, the Lifeact-mCherry and mCherry fluorescence intensity values (normalized to 1:1 GFP-ABD:Lifeact-mCherry sample) are plotted on the X-axis for samples transfected with different donor-to-acceptor DNA ratios. […] With the trade-off between high FRET and minimal nonspecific FRET, the donor:acceptor ratio 1:2 was chosen for the experiments that followed (Fig. 2A). […] Of note, we also tested the biosensor using WT-ABD, which yielded substantially lower FRET (Fig. S1), consistent with the 1000-fold decrease in affinity of WT-ABD for actin ([10]). We proceeded to test the compatibility of the GFP-ABD-L253P and Lifeact-mCherry assay for primary compound screening and the GFP-ABD-L253P and mCherry assay as a potential high-throughput counter screen.
To test the performance of the assay in HTS, the 1280 LOPAC compounds, together with 256 DMSO controls, were dispensed in 5 nl volumes into individual wells of 1536-well microplates and stored at −20 °C until use. To test the reproducibility of replicate screens on the same day, a single batch of HEK293 cells was transfected with GFP-ABD-L253P and Lifeact-mCherry. In addition, control cells were transfected with only GFP-ABD-L253P, to determine compound effect on donor-only lifetime (τD). To test reproducibility of the screens across different days, identical transfections were performed on another batch of HEK293-6E cells on a second day. Following plate thaw, 5 μl of assay cells were loaded in each well via a multidrop liquid dispenser, and a time course of compound effects (at 20, 120, and 180 min post load) on fluorescence lifetime was acquired using a fluorescence lifetime plate reader (FLT-PR). This technology has been advanced to high-density 1536-well plates in recent years for successful HTS using a range of protein biosensors including sarcoplasmic reticulum Ca-ATPase ([24], [25], [26], [27]), ryanodine receptor ([23], [28]), actin ([20]), tumor necrosis factor receptor 1 ([29], [30]), and tau ([31]).
At 2 × 10^6 cells/ml, HEK293-6E cells were transfected with GFP-ABD-L253P or GFP-ABD-WT (2.4 μg), Lifeact-mCherry (2.4–16.8 μg), mCherry (1.2–16.8 μg), and/or pTT5 (0.8–17.6 μg), as indicated, using the 293fectin protocol (Thermo Fisher Scientific) with 20 μg total DNA. Cells were transfected with either GFP-ABD-L253P or –WT, but coexpression of the WT and mutant isoform was not explored in this study. The cells were harvested 24 h later by centrifugation at 100g for 5 min and then washed twice with PBS. […]

Structures are written as SMILES. “Also recorded” adds a separate entry of the source. Like-named read-outs stand apart in the source and are kept apart here.

T1 sequence (O15020 1-284 L253P): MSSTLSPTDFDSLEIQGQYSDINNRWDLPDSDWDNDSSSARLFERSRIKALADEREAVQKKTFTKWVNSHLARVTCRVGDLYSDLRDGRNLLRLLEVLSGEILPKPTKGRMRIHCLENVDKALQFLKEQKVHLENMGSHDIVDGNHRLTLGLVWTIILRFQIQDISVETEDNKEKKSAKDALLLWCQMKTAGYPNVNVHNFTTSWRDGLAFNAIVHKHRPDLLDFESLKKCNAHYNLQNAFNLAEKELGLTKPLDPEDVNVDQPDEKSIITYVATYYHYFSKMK

Consider `CC(C)(C)c1ccc(/C=C/C(=O)Nc2ccc3c(c2)OCCO3)cc1` [AMG 9810], for which the “Shift of FRET” value fell in the range of 2 to 14% and the “Effect of Hit compound on primary FRET” value is given as “decrease FRET”.
On to `O=C(O)c1cc([N+](=O)[O-])ccc1NCCCc1ccccc1` [NPPB], for which the “Effect of Hit compound on primary FRET” value is given as “decrease FRET”.
Take `CCOc1nc2cccc(C(=O)O)c2n1Cc1ccc(-c2ccccc2-c2nnn[nH]2)cc1` [candesartan]: the “Shift of FRET” value lay in the range of 2 to 14% and the “Effect of Hit compound on primary FRET” value is “decrease FRET”.
In the same order, the values of `CCCCCCCC/C=C\CCCCCCCC(=O)NCc1ccc(O)c(OC)c1` [olvanil] are 2 to 14% and “decrease FRET; also recorded: subtly reduced”.
With `CO[C@H]1C[C@H](CC[C@H](C)[C@H](O)[C@H](C)[C@H]2OC(=O)/C=C/C(C)=C/C[C@H](O)C[C@@H]3C=CC[C@@H](C[C@H](OC)[C@@H](C)[C@@H](O)C[C@@H](O)[C@H](C)[C@@H]([C@@H](C)[C@@H](O)[C@@H](C)CC[C@H]4C[C@H](OC)C[C@H](C)O4)OC(=O)/C=C/C(C)=C/C[C@H](O)C[C@@H]4C=CC[C@@H](C[C@H](OC)[C@@H](C)[C@@H](O)C[C@@H](O)[C@@H]2C)O4)O3)O[C@@H](C)C1` [swinholide A], the “Reduction of Total FRET in primary FRET assay” value (1 μM swinholide A, relative to DMSO) is reported as more than 50%. Moreover, the EC50 was found to be 241 nM (Plate A, 1536-well, read-out: EC50 of specific FRET dose response); 284 nM (Plate B, 1536-well, read-out: EC50 of specific FRET dose response); 267 nM (Plate C, 1536-well, read-out: EC50 of specific FRET dose response); 264 nM (triplicate 12-point concentration response, 1536-well plates, read-out: EC50 of FRET reduction, average). Besides, the “Reduction in FRET (Fig. 2B)” value (swinholide A (3 μM in Fig. 2B legend), relative to DMSO, n = 3) came out at 56 ± 7%.

These data come from article PMC7948455, “Novel drug discovery platform for spinocerebellar ataxia, using fluorescence technology targeting β-III-spectrin” (The Journal of Biological Chemistry, 2020).
